# From BindingDB's records for doi:10.1021/jm201702g (Ambit Biosciences, 2012)
# Test: Inhibition of Aurora kinase B in human HCT116 cells assessed as induction of 8N polyploidy
row,EC50,Structure (SMILES)
1,3 nM,Cc1cc(Nc2nc(Sc3ccc(NC(=O)CN4CC[C@@H](C(=O)NC5CCCC5)C4)cc3)nn3cccc23)n[nH]1
2,3 nM,Cc1cc(Nc2nc(Sc3ccc(NC(=O)CN4CC[C@@H](C(=O)N5CCC(F)(F)C5)C4)cc3)nn3cccc23)n[nH]1
